# Key:
# [1] = target: Bone morphogenetic protein receptor type-1B (Homo sapiens) (UniProt O00238)
# [2] = target: Tyrosine-protein kinase receptor TYRO3 (Homo sapiens) (UniProt Q06418)
# [3] = target: Tyrosine-protein kinase receptor UFO (Homo sapiens) (UniProt P30530)
# [4] = target: Homeodomain-interacting protein kinase 2 (Homo sapiens) (UniProt Q9H2X6)
# [5] = test system: Epidermal growth factor receptor (Homo sapiens), P00533 [UNDEFINED MUTATION]
# [6] = target: Mitogen-activated protein kinase kinase kinase 2 (Homo sapiens) (UniProt Q9Y2U5)
# [7] = target: Myotonin-protein kinase (Homo sapiens) (UniProt Q09013)
# [8] = test system: ALK tyrosine kinase receptor (Homo sapiens), Q9UM73 [L1196M]
# [9] = target: Hormonally up-regulated neu tumor-associated kinase (Homo sapiens) (UniProt P57058)
# [10] = target: Serine/threonine-protein kinase TAO1 (Homo sapiens) (UniProt Q7L7X3)
# [11] = target: Dual specificity protein kinase TTK (Homo sapiens) (UniProt P33981)
# [12] = target: Interleukin-1 receptor-associated kinase 1 (Homo sapiens) (UniProt P51617)
# [13] = target: Phosphatidylinositol 4-phosphate 5-kinase type-1 alpha (Homo sapiens) (UniProt Q99755)
# [14] = target: Protein kinase C epsilon type (Homo sapiens) (UniProt Q02156)
# [15] = target: Citron Rho-interacting kinase (Homo sapiens) (UniProt O14578)
# [16] = target: Inhibitor of nuclear factor kappa-B kinase subunit epsilon (Homo sapiens) (UniProt Q14164)
# [17] = target: Casein kinase I isoform gamma-1 (Homo sapiens) (UniProt Q9HCP0)
# [18] = test system: Tyrosine-protein kinase ABL1 (Homo sapiens), P00519 [F317I]
# [19] = target: Serine/threonine-protein kinase Nek1 (Homo sapiens) (UniProt Q96PY6)
# [20] = test system: Epidermal growth factor receptor (Homo sapiens), P00533 [L861Q]
# [21] = target: Serine/threonine-protein kinase TAO2 (Homo sapiens) (UniProt Q9UL54)
# [22] = target: Inhibitor of nuclear factor kappa-B kinase subunit alpha (Homo sapiens) (UniProt O15111)
# [23] = target: Serine/threonine-protein kinase RIO2 (Homo sapiens) (UniProt Q9BVS4)
# [24] = target: STE20-like serine/threonine-protein kinase (Homo sapiens) (UniProt Q9H2G2)
# [25] = target: Receptor tyrosine-protein kinase erbB-2 (Homo sapiens) (UniProt P04626)
# [26] = target: Serine/threonine-protein kinase Nek5 (Homo sapiens) (UniProt Q6P3R8)
# [27] = target: Ankyrin repeat and protein kinase domain-containing protein 1 (Homo sapiens) (UniProt Q8NFD2)
# [28] = test system: Epidermal growth factor receptor (Homo sapiens), P00533 [UNDEFINED MUTATION]; remark: listed apart in the source
# [29] = target: Serine/threonine-protein kinase 3 (Homo sapiens) (UniProt Q13188)
# [30] = test system: Tyrosine-protein kinase ABL1 (Homo sapiens), P00519 [T315I]
# [31] = target: Serine/threonine-protein kinase RIO3 (Homo sapiens) (UniProt O14730)
# [32] = target: Insulin-like growth factor 1 receptor (Homo sapiens) (UniProt P08069)
# [33] = target: Hepatocyte growth factor receptor (Homo sapiens) (UniProt P08581)
# [34] = target: Sigma intracellular receptor 2 (Homo sapiens, UniProt Q5BJF2); settings: Compound concentration 10.0 uM
# [35] = target: Tyrosine-protein kinase Mer (Homo sapiens) (UniProt Q12866)
# [36] = target: Serine/threonine-protein kinase Chk2 (Homo sapiens) (UniProt O96017)
# [37] = test system: Tyrosine-protein kinase ABL1 (Homo sapiens), P00519 [F317I]; remark: listed apart in the source
# [38] = target: Peripheral plasma membrane protein CASK (Homo sapiens) (UniProt O14936)
# [39] = target: Tyrosine-protein kinase ABL1 (Homo sapiens) (UniProt P00519)
# [40] = test system: Tyrosine-protein kinase ABL1 (Homo sapiens), P00519 [Q252H]
# [41] = target: Calcium/calmodulin-dependent protein kinase type IV (Homo sapiens) (UniProt Q16566)
# [42] = target: Beta-2 adrenergic receptor (Homo sapiens) (UniProt P07550); settings: Compound concentration 10.0 uM
# [43] = target: Cyclin-dependent kinase 2 (Homo sapiens) (UniProt P24941)
# [44] = target: Mitogen-activated protein kinase 6 (Homo sapiens) (UniProt Q16659)
# [45] = target: Serine/threonine-protein kinase mTOR (Homo sapiens) (UniProt P42345)
# [46] = Compound concentration 1000.0 nM
# [47] = Compound concentration 100.0 nM
# Chain of Citron Rho-interacting kinase (Homo sapiens) (O14578 whole entry): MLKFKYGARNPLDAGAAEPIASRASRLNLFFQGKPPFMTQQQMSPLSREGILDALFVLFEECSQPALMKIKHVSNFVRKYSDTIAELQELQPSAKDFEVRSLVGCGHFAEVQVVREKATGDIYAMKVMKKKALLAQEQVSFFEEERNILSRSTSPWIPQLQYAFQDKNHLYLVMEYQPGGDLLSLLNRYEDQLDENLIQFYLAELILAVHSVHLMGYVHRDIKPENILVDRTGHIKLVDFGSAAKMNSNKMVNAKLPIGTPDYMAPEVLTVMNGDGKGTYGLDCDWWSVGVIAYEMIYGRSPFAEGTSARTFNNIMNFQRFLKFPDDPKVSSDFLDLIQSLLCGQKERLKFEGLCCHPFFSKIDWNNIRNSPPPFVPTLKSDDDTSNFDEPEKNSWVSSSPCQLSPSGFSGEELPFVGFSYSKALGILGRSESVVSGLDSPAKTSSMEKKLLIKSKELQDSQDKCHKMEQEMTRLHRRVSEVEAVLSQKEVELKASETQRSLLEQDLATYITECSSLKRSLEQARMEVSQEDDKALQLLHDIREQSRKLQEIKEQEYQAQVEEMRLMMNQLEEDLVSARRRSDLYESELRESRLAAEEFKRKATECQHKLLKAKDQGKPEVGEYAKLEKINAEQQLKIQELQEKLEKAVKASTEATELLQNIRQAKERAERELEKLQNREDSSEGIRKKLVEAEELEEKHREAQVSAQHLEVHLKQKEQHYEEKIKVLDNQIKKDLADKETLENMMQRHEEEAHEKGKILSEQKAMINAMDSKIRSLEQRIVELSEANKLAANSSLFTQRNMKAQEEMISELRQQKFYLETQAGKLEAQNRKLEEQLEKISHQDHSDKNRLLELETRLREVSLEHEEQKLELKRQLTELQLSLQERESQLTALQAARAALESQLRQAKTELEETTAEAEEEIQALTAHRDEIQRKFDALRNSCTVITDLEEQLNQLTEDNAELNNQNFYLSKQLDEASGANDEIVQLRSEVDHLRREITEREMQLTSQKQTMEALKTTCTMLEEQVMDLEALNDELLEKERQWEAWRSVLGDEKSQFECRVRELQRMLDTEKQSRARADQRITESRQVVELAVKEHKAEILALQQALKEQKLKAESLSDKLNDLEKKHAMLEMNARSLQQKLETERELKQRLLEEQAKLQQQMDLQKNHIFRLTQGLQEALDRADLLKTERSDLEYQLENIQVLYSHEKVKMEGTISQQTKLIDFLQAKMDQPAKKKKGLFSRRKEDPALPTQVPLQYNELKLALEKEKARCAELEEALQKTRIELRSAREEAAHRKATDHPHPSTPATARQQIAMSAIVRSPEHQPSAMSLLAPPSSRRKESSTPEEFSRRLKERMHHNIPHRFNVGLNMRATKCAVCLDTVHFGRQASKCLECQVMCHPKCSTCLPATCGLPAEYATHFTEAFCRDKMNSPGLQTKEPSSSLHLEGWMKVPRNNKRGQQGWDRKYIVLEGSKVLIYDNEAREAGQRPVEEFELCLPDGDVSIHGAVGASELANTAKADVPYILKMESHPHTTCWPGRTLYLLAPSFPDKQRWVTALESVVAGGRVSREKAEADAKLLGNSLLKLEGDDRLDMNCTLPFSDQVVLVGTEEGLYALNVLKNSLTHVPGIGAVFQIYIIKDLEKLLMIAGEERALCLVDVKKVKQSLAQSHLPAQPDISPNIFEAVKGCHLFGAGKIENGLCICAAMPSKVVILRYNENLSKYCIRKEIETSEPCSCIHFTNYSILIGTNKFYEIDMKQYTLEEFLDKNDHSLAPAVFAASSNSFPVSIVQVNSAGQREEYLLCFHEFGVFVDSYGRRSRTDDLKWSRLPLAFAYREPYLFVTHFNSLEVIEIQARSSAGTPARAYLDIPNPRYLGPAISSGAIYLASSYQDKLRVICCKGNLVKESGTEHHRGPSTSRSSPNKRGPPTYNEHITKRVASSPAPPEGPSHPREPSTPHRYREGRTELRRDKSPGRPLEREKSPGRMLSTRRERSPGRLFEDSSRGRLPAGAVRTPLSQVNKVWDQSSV
# Chain of Hepatocyte growth factor receptor (Homo sapiens) (P08581 whole entry): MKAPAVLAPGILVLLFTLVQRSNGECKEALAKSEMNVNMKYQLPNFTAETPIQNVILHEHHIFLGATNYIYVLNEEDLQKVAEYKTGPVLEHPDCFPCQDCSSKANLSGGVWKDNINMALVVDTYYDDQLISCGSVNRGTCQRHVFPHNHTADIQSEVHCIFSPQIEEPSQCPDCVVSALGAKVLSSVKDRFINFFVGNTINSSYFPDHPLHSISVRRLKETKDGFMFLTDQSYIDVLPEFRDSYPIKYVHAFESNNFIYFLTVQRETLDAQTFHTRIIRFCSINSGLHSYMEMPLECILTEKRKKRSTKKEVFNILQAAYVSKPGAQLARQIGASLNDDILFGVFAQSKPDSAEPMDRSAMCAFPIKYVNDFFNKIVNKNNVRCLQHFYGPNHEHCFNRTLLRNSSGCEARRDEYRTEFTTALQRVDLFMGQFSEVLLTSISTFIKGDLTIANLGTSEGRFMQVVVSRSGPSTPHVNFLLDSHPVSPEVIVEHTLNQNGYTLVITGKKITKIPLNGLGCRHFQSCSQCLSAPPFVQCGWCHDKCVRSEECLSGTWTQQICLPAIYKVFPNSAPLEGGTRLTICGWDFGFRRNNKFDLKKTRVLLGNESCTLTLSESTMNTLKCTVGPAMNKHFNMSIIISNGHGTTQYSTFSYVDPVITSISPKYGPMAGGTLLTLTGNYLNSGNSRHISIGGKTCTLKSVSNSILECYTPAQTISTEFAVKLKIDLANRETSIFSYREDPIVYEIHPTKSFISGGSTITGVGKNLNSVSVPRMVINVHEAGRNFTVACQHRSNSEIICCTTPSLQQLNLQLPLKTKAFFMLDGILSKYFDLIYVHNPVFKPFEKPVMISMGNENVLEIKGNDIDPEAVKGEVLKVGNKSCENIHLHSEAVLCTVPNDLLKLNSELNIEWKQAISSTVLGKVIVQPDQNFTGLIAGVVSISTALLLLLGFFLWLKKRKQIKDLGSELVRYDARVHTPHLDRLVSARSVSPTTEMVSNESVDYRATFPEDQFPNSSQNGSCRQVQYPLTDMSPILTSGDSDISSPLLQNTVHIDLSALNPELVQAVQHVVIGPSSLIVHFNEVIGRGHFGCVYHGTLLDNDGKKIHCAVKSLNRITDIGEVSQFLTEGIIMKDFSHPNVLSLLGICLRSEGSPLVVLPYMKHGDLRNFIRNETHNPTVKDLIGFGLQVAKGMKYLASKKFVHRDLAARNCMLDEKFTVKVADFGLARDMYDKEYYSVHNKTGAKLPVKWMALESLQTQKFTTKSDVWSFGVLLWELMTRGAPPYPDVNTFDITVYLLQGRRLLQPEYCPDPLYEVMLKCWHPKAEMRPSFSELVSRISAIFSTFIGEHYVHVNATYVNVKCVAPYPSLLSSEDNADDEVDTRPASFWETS
# Chain of Insulin-like growth factor 1 receptor (Homo sapiens) (P08069 31-736 limits assumed): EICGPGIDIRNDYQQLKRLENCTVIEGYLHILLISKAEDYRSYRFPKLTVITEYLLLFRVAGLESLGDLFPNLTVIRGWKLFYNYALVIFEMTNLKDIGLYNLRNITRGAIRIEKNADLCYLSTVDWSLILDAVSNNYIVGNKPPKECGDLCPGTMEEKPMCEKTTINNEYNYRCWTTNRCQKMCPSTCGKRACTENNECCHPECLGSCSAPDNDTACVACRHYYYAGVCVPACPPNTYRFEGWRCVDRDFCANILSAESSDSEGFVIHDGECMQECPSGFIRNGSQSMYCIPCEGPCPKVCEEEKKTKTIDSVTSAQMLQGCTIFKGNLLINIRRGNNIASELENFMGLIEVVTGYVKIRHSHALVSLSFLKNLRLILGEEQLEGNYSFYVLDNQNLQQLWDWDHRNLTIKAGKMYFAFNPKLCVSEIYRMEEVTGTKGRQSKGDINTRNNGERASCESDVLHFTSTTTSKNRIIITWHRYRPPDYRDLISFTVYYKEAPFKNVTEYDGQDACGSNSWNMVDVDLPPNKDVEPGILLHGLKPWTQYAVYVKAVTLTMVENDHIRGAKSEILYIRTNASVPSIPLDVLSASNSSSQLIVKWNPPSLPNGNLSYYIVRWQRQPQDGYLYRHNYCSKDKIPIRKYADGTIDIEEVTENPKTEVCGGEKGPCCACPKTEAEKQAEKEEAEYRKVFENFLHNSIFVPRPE
# Chain of Insulin-like growth factor 1 receptor (Homo sapiens) (P08069 741-1367 limits assumed): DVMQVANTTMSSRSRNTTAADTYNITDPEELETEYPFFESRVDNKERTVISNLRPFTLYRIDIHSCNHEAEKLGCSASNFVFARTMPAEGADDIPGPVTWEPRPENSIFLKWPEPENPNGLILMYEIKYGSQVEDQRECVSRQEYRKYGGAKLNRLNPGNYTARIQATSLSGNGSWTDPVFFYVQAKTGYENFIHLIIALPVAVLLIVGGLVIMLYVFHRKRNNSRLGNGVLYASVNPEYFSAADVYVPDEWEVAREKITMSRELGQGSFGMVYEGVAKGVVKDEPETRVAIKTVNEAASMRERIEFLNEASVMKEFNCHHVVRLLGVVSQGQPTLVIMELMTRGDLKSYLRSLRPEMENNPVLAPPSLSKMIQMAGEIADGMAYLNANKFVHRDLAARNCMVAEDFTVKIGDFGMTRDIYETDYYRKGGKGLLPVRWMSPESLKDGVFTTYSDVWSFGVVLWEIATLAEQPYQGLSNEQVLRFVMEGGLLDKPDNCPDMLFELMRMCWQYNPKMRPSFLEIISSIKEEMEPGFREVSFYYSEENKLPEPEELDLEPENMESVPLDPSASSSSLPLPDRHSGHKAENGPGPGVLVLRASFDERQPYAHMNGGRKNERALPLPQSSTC
# Chain of Sigma intracellular receptor 2 (Q5BJF2 whole entry): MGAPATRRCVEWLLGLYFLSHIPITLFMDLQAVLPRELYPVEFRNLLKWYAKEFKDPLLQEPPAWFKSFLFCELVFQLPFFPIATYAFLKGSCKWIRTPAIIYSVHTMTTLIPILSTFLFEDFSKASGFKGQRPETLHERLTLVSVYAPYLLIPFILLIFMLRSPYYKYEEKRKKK
compound,measurement,setting,value
Cc1cc(NC(=O)c2cccc(S(F)(F)(F)(F)F)c2)cc(-n2ccn3nc(-c4cccnc4)cc23)c1 [BAY-309],residual activity,[1]; [46],100%
same,residual activity,[2]; [46],88.4%
same,residual activity,[3]; [46],100%
same,residual activity,[4]; [46],85%
same,residual activity,[5]; [46],98.7%
same,residual activity,[6]; [46],52.7%
same,residual activity,[7]; [46],100%
same,residual activity,[8]; [46],100%
same,residual activity,[9]; [46],77.6%
same,residual activity,[10]; [46],100%
same,residual activity,[11]; [46],44.8%
same,residual activity,[12]; [46],96%
same,residual activity,[13]; [46],100%
same,residual activity,[14]; [46],91.2%
same,residual activity,[15]; [46],60.7%
same,residual activity,[16]; [46],100%
same,residual activity,[17]; [46],100%
same,residual activity,[18]; [46],100%
same,residual activity,[19]; [46],100%
same,residual activity,[20]; [46],98.2%
same,residual activity,[21]; [46],91.3%
same,residual activity,[22]; [46],71.1%
same,residual activity,[23]; [46],49.7%
same,residual activity,[24]; [46],95.2%
same,residual activity,[25]; [46],100%
same,residual activity,[26]; [46],86.8%
same,residual activity,[27]; [46],100%
same,residual activity,[28]; [46],95.1%
same,residual activity,[29]; [46],100%
same,residual activity,[30]; [46],88.9%
same,residual activity,[31]; [46],85.9%
same,residual activity,[32]; [46],100%
same,residual activity,[33]; [46],77.3%
same,inhibition,[34],68.7%
same,residual activity,[35]; [46],100%
same,residual activity,[36]; [46],100%
same,residual activity,[37]; [46],100%
same,residual activity,[38]; [46],68.1%
same,residual activity,[39]; [46],52.2%
same,residual activity,[40]; [46],49.2%
same,residual activity,[41]; [46],80.5%
same,inhibition,[42],-7.8%
same,residual activity,[43]; [46],100%
same,residual activity,[44]; [46],100%
same,residual activity,[45]; [46],99.2%
Cc1cc(C)c(-n2ccn3nc(-c4cccnc4)cc23)cc1NC(=O)c1cc(C#N)cc(S(F)(F)(F)(F)F)c1 [BAY-826],residual activity,[1]; [47],72.3%
same,residual activity,[2]; [47],72.4%
same,residual activity,[3]; [47],80.5%
same,residual activity,[4]; [47],86.2%
same,residual activity,[5]; [47],78.7%
same,residual activity,[6]; [47],86.4%
same,residual activity,[7]; [47],95.6%
same,residual activity,[8]; [47],99.6%
same,residual activity,[9]; [47],83%
same,residual activity,[10]; [47],45.2%
same,residual activity,[11]; [47],72%
same,residual activity,[12]; [47],87.3%
same,residual activity,[13]; [47],95%
same,residual activity,[14]; [47],100%
same,residual activity,[15]; [47],69.9%
same,residual activity,[16]; [47],59.9%
same,residual activity,[17]; [47],91.1%
same,residual activity,[18]; [47],65.8%
same,residual activity,[19]; [47],100%
same,residual activity,[20]; [47],91.1%
same,residual activity,[21]; [47],48.2%
same,residual activity,[22]; [47],100%
same,residual activity,[23]; [47],74.2%
same,residual activity,[24]; [47],48.5%
same,residual activity,[25]; [47],84.2%
same,residual activity,[26]; [47],87.8%
same,residual activity,[27]; [47],84.5%
same,residual activity,[28]; [47],85.5%
same,residual activity,[29]; [47],85.4%
same,residual activity,[30]; [47],33.4%
same,residual activity,[31]; [47],100%
same,residual activity,[32]; [47],84.7%
same,residual activity,[33]; [47],82.8%
same,inhibition,[34],64.4%
same,residual activity,[35]; [47],83.6%
same,residual activity,[36]; [47],100%
same,residual activity,[37]; [47],76.4%
same,residual activity,[38]; [47],86.6%
same,residual activity,[39]; [47],29.2%
same,residual activity,[40]; [47],31.4%
same,residual activity,[41]; [47],93.9%
same,inhibition,[42],25.6%
same,residual activity,[43]; [47],99%
same,residual activity,[44]; [47],85.8%
same,residual activity,[45]; [47],70.1%
